# Data published in patent US20080214662A1, “METHODS FOR THE TREATMENT OF DEMENTIA BASED ON APO E GENOTYPE” (priority 2002, published 2008).
# Values joined by “and” are separate entries in the source; they are usually repeats but may differ in a detail not shown here. Equal values may be shown once.
# Test system: outpatients with probable AD
# Assay: Pharmacogenetic analysis of ADAS-Cog response to rivastigmine by ApoE ε4 carrier status in Phase III trials ENA 713 B351 and ENA 713 B352
# Format: in vivo, human
# Set-up: key to mean of change from baseline in ADAS-Cog score at end of study: change from baseline in ADAS-Cog score points
# Settings: for response to treatment (non-deterioration, Table 7), share of individuals: rivastigmine greater than or equal to 6 mg; for 4-point improvement in the ADAS-Cog score (number of individuals) / Deterioration in the ADAS-Cog score (number of individuals) / No 4-point improvement in the ADAS-Cog score (number of individuals) / Non-deterioration in the ADAS-Cog score (number of individuals): 26 weeks
# Method: A pharmacogenetic study of the effect of a patients ApoE ε4 genotype on the response to the ChEI, rivastigmine was conducted. Rivastigmine tartrate is an inhibitor of both AChE and BuChE and is commercially available under the name EXELON™ from Novartis Pharmaceuticals Corporation, East Hanover, N.J. Individuals In the trial were divided into treatment groups depending on the dose they received, namely <6 mg/day of rivastigmine, 6-12 mg/day of rivastigmine and placebo. Each treatment group was analyzed separately. Individuals in each treatment group were then classified as ApoE ε4 carriers or non-carriers based on the genotype data. A significant association (P=0.0071) between the ApoE ε4 carriers and the greater than 4 point improvement was found in the 6-12 mg group. In contrast, the association of the ApoE ε4 allele with non-deterioration in the study was not significant (P=0.1172) in the same group.
# The Phase III clinical trials ENA 713 B352 and ENA 713 B351 are multicenter, double-blind, placebo-controlled, parallel-group study to examine the effect of rivastigmine in outpatients with probable AD. Both trials are conducted over a period of 26 weeks. ENA 713 B351 has 4 treatment arms with comprising of rivastigmine 3 mg/day, rivastigmine 6 mg/day, rivastigmine 9 mg/day or placebo. The initial dose-titration phase (Weeks 1-12) was followed by a fixed-dose phase (Week 13-26), for a total randomized double-blind treatment period of 26 weeks. ENA 713 B352 has 3 treatment arms with comprising of rivastigmine 1-4 mg/day, rivastigmine 6-12 mg/day, and placebo. The initial dose-titration phase (Weeks 1-7) was followed by a fixed-dose phase (Week 8-26), for a total randomized, double-blind treatment period of 26 weeks. The blood samples were handled by the Roskamp Institute, University of South Florida.
# Individuals in the trial were classified as being responders if the final change from their baseline ADAS-COG scores is less than or equal to 4-points. A Fisher's Exact test was used to find an association between ApoE genotype and response.
# Individuals in the trial were classified as being responders if the final change from their baseline ADAS-Cog scores is less than or equal to 0 points. A Fisher's Exact test was used to find an association between ApoE genotype and response.
# Treatment differences in the ApoE ε4 and non-ApoE ε4 carriers were also analyzed. Treatment differences being measured as the 4-point decrease and the non-deterioration classes. An exact Cochran-Armitage test for trend is used to determine if the numbers of responders increase with dose of rivastigmine among each genotype group.
# The trial population was divided into three groups based on the treatment they received. The three groups are placebo, rivastigmine <6 mg/day and rivastigmine ≧6 mg/day. All analyses were conducted within each group separately. The genotype data for the ApoE were re-coded for the presence or absence of the […]. The re-coded genotype data were used as the categorical variable.
# A non-parametric analysis of variance (ANOVA) model was used for the analysis. Change from baseline in the ADAS-Cog score is used as the dependent variable.
# [1] = rivastigmine <6 mg/day, No ε4 allele
# [2] = rivastigmine <6 mg/day, ε4 allele carriers
# [3] = rivastigmine ≧6 mg/day, No ε4 allele
# [4] = rivastigmine ≧6 mg/day, No ε4 allele, listed as Rivastigmine
# [5] = rivastigmine ≧6 mg/day, ε4 allele carriers
smiles,measurement,setting,value
CCN(C)C(=O)Oc1cccc([C@H](C)N(C)C)c1 [rivastigmine],"response to treatment (non-deterioration, Table 7), share of individuals",ApoE ε4 carriers,65%
same,mean of change from baseline in ADAS-Cog score at end of study,"Rivastigmine <6 mg/day, No ε4 allele",1.444
same,mean of change from baseline in ADAS-Cog score at end of study,"Rivastigmine <6 mg/day, ε4 allele",1.293
same,mean of change from baseline in ADAS-Cog score at end of study,"Rivastigmine ≧6 mg/day, No ε4 allele, listed as Rivastigmine",0.39
same,mean of change from baseline in ADAS-Cog score at end of study,"Rivastigmine ≧6 mg/day, ε4 allele",−1.74
same,"response to treatment (non-deterioration, Table 7), share of individuals",non-ApoE ε4 carriers,48.7%
same,4-point improvement in the ADAS-Cog score (number of individuals),[1],4
same,Deterioration in the ADAS-Cog score (number of individuals),[1],24
same,No 4-point improvement in the ADAS-Cog score (number of individuals),[1],32
same,Non-deterioration in the ADAS-Cog score (number of individuals),[1],12
same,No 4-point improvement in the ADAS-Cog score (number of individuals),"rivastigmine <6 mg/day, No ε4 allele, listed as Rivastigmine",37
same,4-point improvement in the ADAS-Cog score (number of individuals),[2],12
same,Deterioration in the ADAS-Cog score (number of individuals),[2],63
same,No 4-point improvement in the ADAS-Cog score (number of individuals),[2],83
same,Non-deterioration in the ADAS-Cog score (number of individuals),[2],32 and 12
same,4-point improvement in the ADAS-Cog score (number of individuals),[3],4
same,Deterioration in the ADAS-Cog score (number of individuals),[3],21
same,No 4-point improvement in the ADAS-Cog score (number of individuals),[3],37
same,Non-deterioration in the ADAS-Cog score (number of individuals),[3],20
same,4-point improvement in the ADAS-Cog score (number of individuals),[4],26
same,No 4-point improvement in the ADAS-Cog score (number of individuals),[4],54
same,4-point improvement in the ADAS-Cog score (number of individuals),[5],26
same,Deterioration in the ADAS-Cog score (number of individuals),[5],28
same,No 4-point improvement in the ADAS-Cog score (number of individuals),[5],54
same,Non-deterioration in the ADAS-Cog score (number of individuals),[5],52
